Measurements published in PMC6934184, “Selective DNA-PKcs inhibition extends the therapeutic index of localized radiotherapy and chemotherapy” (The Journal of Clinical Investigation, 2019).

Target: T1, PAK1 (Homo sapiens, UniProt Q13153)
T1 construct: purchased Thermo Fisher Scientific (Life Technologies) SelectScreen
Experiment: SelectScreen Z'LYTE
Type: biochemical
Method in brief: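 Percent values come from Thermo SelectScreen profiling of NU5455, combining activity and binding assays. CSF1R was run in Z'LYTE format at Km app ATP, and CAMK1 in Adapta format with ATP listed at 10.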

T1 sequence (Q13153 whole entry): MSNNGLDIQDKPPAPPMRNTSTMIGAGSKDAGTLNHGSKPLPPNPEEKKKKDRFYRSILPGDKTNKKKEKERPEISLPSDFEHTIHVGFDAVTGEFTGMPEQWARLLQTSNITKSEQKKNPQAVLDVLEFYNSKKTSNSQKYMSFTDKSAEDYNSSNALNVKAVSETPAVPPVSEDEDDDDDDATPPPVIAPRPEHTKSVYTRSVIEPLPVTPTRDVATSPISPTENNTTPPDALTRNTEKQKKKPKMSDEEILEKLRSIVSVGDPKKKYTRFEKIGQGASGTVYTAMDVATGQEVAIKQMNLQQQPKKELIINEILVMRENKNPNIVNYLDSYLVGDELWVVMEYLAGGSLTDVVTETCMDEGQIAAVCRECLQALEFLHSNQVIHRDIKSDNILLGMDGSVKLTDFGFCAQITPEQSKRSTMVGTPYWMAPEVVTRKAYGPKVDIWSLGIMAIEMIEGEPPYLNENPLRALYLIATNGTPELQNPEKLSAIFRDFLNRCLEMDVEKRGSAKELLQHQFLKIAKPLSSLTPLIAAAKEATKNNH

## CN(C(=O)CN1CCOCC1)c1ccc2sc3c(-c4cccc5c(=O)cc(N6CC7CCC(C6)O7)oc45)cccc3c2c1 [NU5455]
  inhibition at 1 µM: -4.4%
